Measured values taken from patent US10597649B2, “Tau protease compositions and methods of use” (Oligomerix, Inc., priority 2011, dated 2020).

Assays:
Format in all cases: biochemical
tau 4R2N trimer protease = target: T1, tau 4R2N trimer protease (Homo sapiens, UniProt P10636); assay: Peptide assay (tau peptide 335-353, reverse-phase HPLC) used to screen serine protease inhibitors
T1 construct: Stabilization buffer enables production of full length monomer, dimer and trimer for tau protease; made in house; host or cells: E. coli BL21 (DE3) Gold
Source text: N-terminal sequencing of fragments using mass spectrometry identified autoproteolytic cut sites. In particular, cutting at the Lys340-Ser341 (340KS341) cut site occurred readily. Therefore, a 19-amino acid peptide corresponding to amino acids 335G to 353L of tau protein was synthesized that contained the KS cut site (340KS341). The reaction was monitored by reverse-phase high-pressure liquid chromatography (HPLC). […] An asterisk marks a non-specific contaminant that was used as a marker. […] 10 μg of tau peptide 335-353 ([…]) (SEQ ID NO:19) was custom synthesized by Genscript (Piscataway, N.J., USA) and 1 mg was dissolved in 1 mL of buffer (25 mM Tris-HCl pH 7.4). […] of peptide was incubated with 11 μg of tau trimer protease in 30 μL buffer 20 hr at 37° C. and analyzed by HPLC [SystemGold® 32Karat™ LC-CE System, Beckman Coulter, Inc., (Indianapolis, Ind.)] using a linear gradient of acetonitrile in 0.1% TFA 0-60% acetonitrile on an analytical C18 column (12.5 cm×2.1 mm, 5 μm, (Supelco, Bellefonte, Pa., USA). 30 μg of peptide was incubated without tau protease as a negative control and analyzed with the same method;
The peptide assay for tau 4R2N trimer activity described in FIG. 5 was used to screen a series of serine protease inhibitors. 1 mM AEBSF was incubated with tau 4R2N trimer for 1 hr at room temperature before addition of the peptide substrate. […] The asterisk indicates an artifactual peak unrelated to the peptide;

Tau 4R2N oligomer ladder = target: T2, Tau 4R2N oligomer ladder (Homo sapiens, UniProt P10636); assay: FP-TAMRA serine hydrolase probe labeling of oligomerized tau 4R2N; details: pre-treated with 0, 0.1, 1.0 or 10.0 mM AEBSF for 1 hr; 5 micromolar FP-TAMRA, 4 hrs
T2 construct: Stabilization buffer enables production of full length monomer, dimer and trimer for tau protease; made in house; host or cells: E. coli BL21 (DE3) Gold
Source text: Tau 4R2N oligomer ladder was labeled with fluorophosphonate (FP) linked to a fluorescent TAMRA tag (ThermoFisher Scientific), a probe that is specific for active site serines in serine proteases. FP probes specifically label the serines of enzymatically-active serine hydrolases. The serine protease-specific inhibitor, AEBSF, was used in a dose-response study to determine whether tau was being specifically labeled with FP. […] Samples were run without reductant or with reductant as indicated. For labeling, 10 μg of tau 4R2N was labeled with 5 micromolar FP-TAMRA in 10 μL buffer (25 mM Tris-HCl pH 7.4, 150 mM NaCl, 0.5 mM EDTA, 0.1% NP-40, 5% glycerol) for 4 hrs at room temperature in the dark. Samples were pre-treated with 0, 0.1, 1.0, or 10.0 mM AEBSF for 1 hr at room temperature to block the active-site serine before the addition of the FP-TAMRA probe. Samples were divided in half and run with sample buffer with or without reductant as indicated;
4-(2-Aminoethyl)benzenesulfonyl fluoride hydrochloride (AEBSF) was prepared fresh in anhydrous DMSO. (Sigma Chemical Co.) A8456-≥97%, Molecular Weight: 239.69; 9 mg AEBSF/187.2 μL DMSO=200 mM. Serine hydrolase FP probes were equilibrated to room temperature in pouch with desiccant. Serine hydrolase FP probe was dissolved in 100 μL of DMSO to make a 0.1 mM stock solution. Samples were aliquotted in 5-μL/tubes and store in −80° C. freezer. […]

[1] = test system: tau protein from a specimen of Alzheimer's brain; assay: FP-TAMRA labeling of tau immunopurified from AD brain; details: AD brain lysate treated with PMSF before 2 μM FP-TAMRA probe
Source text: Serine hydrolases include a class of enzymes that include serine proteases. The serine hydrolase superfamily is one of the largest known enzyme families that share a catalytic mechanism that involves a serine nucleophile. Phenylmethanesulfonyl fluoride (PMSF) irreversibly binds to the active site serine of serine hydrolases to inactivate their enzymatic activity and prevents the probe from labeling them. […] Protein was extracted from an AD brain by Dounce homogenization in TPER buffer (ThermoFisher Scientific) with 1 mM EDTA, 1 μg/mL pepstatin A, […] phosphoramidon, phosphatase inhibitor (ThermoFisher Scientific). The lysate was cleared by centrifugation at 10,000×g for 20 min. The supernatant was depleted for biotin using Streptavidin-agarose (ThermoFisher Scientific). A probe specific for active serine hydrolases, fluorophosphonate (FP) labeled with a fluorescent carboxytetramethylrhodamine (TAMRA) tag (ThermoFisher Scientific), was incubated with the lysate at a final concentration of 2 μM. As a control for non-specific labeling, a portion of the lysate was treated with phenylmethanesulfonyl fluoride (PMSF), an irreversible inhibitor of serine hydrolases, including tau protease, before using the FP-TAMRA probe. Biotinylated monoclonal antibody HT7 (ThermoFisher Scientific) was used to capture total tau from the lysate with streptavidin-agarose beads (ThermoFisher Scientific). […]

[2] = Tau protease enzymatic activity of truncated tau peptides (general statement)

T1 sequence (P10636 1-441 isoform P10636-8): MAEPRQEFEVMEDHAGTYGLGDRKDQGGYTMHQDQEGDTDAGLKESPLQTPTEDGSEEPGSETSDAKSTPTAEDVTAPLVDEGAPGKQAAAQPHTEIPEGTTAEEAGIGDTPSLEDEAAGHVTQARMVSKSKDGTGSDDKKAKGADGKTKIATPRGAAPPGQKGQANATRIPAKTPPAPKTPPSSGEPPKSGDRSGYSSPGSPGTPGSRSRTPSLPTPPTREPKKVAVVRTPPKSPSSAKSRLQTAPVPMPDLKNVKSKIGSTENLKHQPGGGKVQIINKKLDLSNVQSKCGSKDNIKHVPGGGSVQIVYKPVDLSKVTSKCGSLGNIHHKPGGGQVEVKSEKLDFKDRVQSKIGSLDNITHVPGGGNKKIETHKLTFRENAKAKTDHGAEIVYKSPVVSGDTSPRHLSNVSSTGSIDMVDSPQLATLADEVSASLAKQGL
T2 sequence (P10636 1-441 isoform P10636-8): as above

Molecule: Cl.NCCc1ccc(S(=O)(=O)F)cc1 [AEBSF, 4-(2-Aminoethyl)benzenesulfonyl fluoride hydrochloride]
- inhibition of tau 4R2N trimer protease activity, peptide assay (FIG. 14A) (tau 4R2N trimer protease; 1 mM AEBSF, 1 hr at room temperature before peptide substrate): inhibited
- FP-TAMRA labeling of tau 4R2N (Tau 4R2N oligomer ladder): inhibited in a dose-dependent manner

Molecule: O=S(=O)(F)Cc1ccccc1 [PMSF, phenylmethanesulfonyl fluoride]
- inhibition of cleavage of the peptide (FIG. 14E) (tau 4R2N trimer protease; 1 mM PMSF (also printed 1 μM), one hr at room temperature before peptide substrate): strongly inhibited
- FP-TAMRA labeling of immunocaptured protein bands [1]: reduced labeling

Molecule: TP-118: 118 amino acid truncated tau peptide, 4R2N 268-385 (SEQ ID NO:2)
- tau protease enzymatic activity [2]: retain tau protease enzymatic activity
